Experimental data from patent US20150031740A1, “COSMETIC COMPOSITION FOR STIMULATING THE CELLULAR ANTI-AGING FUNCTIONS OF THE SKIN” (SYNTIVIA, priority 2011, published 2015).

What was measured:
[1] = tested on: sirtuin-5; assay: Expression of the gene coding for sirtuin-5, quantitative RT-PCR in NHDF; assay type: cell-based; settings: normal human fibroblasts (NHDF), 10^−5 M in 0.1% DMSO, 24 hours, mRNA by quantitative RT-PCR
Description: In these examples, the expression of messenger RNAs was measured via the technique of quantitative RT-PCR (reverse transcription followed by polymerase chain reaction), after in vitro incubation of the various cell types in the absence or presence of the test compounds. This study was performed on normal human dermal fibroblasts (NHDF) or on normal human epidermal keratinocytes (NHEK), depending on the genes tested. The molecules were tested at 10^−5 M in aqueous 0.1% dimethyl sulfoxide (DMSO) solution. The cells were cultured at a concentration of 10,000 cells per well of 96-well plates, in the presence of standard culture medium as a function of the cell type. The compounds were then added at the test concentration, for 24 hours. The supernatant was removed and the cells were taken up in a specific buffer for extraction of the messenger RNAs (mRNA). The mRNAs were purified and reverse-transcribed in the presence of a commercial reverse transcriptase. The complementary DNAs (cDNA) obtained were used in a real-time quantitative PCR experiment, by means of suitable primers. The degree of expression of the mRNAs was normalized with five reference genes. The cells used for this example are normal human fibroblasts (NHDF). The contact with the test compounds was carried out for 24 hours. The results obtained, in terms of expression of sirtuin-5 (coded for by the gene of Genbank accession number: NC—000006.11) relative to the basal level (absence of compound) taken to 100%, are shown in Table 5 below.

[2] = tested on: protein Klotho (KL); assay: Expression of the gene coding for the protein Klotho (KL), quantitative RT-PCR in NHDF; assay type: cell-based; settings: normal human fibroblasts (NHDF), 10^−5 M in 0.1% DMSO, 24 hours, mRNA by quantitative RT-PCR
Description: (§1) In these examples, the expression of messenger RNAs was measured via the technique of quantitative RT-PCR (reverse transcription followed by polymerase chain reaction), after in vitro incubation of the various cell types in the absence or presence of the test compounds.
(§2) This study was performed on normal human dermal fibroblasts (NHDF) or on normal human epidermal keratinocytes (NHEK), depending on the genes tested. The molecules were tested at 10^−5 M in aqueous 0.1% dimethyl sulfoxide (DMSO) solution.
(§3) The cells were cultured at a concentration of 10,000 cells per well of 96-well plates, in the presence of standard culture medium as a function of the cell type.
(§4) The compounds were then added at the test concentration, for 24 hours.
(§5) The supernatant was removed and the cells were taken up in a specific buffer for extraction of the messenger RNAs (mRNA). The mRNAs were purified and reverse-transcribed in the presence of a commercial reverse transcriptase.
(§6) The complementary DNAs (cDNA) obtained were used in a real-time quantitative PCR experiment, by means of suitable primers. The degree of expression of the mRNAs was normalized with five reference genes.
(§7) The cells used for this example are normal human fibroblasts (NHDF).
(§8) The contact with the test compounds was carried out for 24 hours. […]

[3] = tested on: KRT1 (Keratin 1); assay: Expression of cell differentiation and adhesion gene KRT1, RT-PCR in NHEK; assay type: cell-based, human; settings: 10^−5 M, 24 hours, quantitative RT-PCR
Description: as §1, §2, §3, §4, §5, §6
(§9) The cells used for this example are normal human keratinocytes (NHEK).
as §8

[4] = tested on: CRNN (Cornulin); assay: Expression of cell differentiation and adhesion gene CRNN, RT-PCR in NHEK; assay type: cell-based, human; settings: 10^−5 M, 24 hours, quantitative RT-PCR
Description: as §1, §2, §3, §4, §5, §6, §9, §8

[5] = tested on: LAMA5 (Laminin alpha 5); assay: Expression of extracellular matrix gene Laminin alpha 5, RT-PCR in NHDF; assay type: cell-based, human; settings: 10^−5 M, 24 hours, quantitative RT-PCR
Description: as §1, §2, §3, §4, §5, §6, §7, §8

[6] = tested on: HAS3 (Hyaluronan synthase 3); assay: Expression of extracellular matrix gene Hyaluronan synthase 3, RT-PCR in NHDF; assay type: cell-based, human; settings: 10^−5 M, 24 hours, quantitative RT-PCR
Description: as §1, §2, §3, §4, §5, §6, §7, §8

[7] = tested on: COL1A11 (Collagen 1); assay: Expression of extracellular matrix gene Collagen 1, RT-PCR in NHDF; assay type: cell-based, human; settings: 10^−5 M, 24 hours, quantitative RT-PCR
Description: as §1, §2, §3, §4, §5, §6, §7, §8

[8] = tested on: MMP-9 (matrix metalloprotease type 9); assay: Gene expression of MMP-9, quantitative RT-PCR in NHEK; assay type: cell-based; settings: normal human keratinocytes (NHEK), 10^−5 M in 0.1% DMSO, 24 hours, mRNA by quantitative RT-PCR
Description: as §1, §2, §3, §4, §5, §6
The cells used for this example were normal human keratinocytes (NHEK).
The contact with the test compounds was carried out for 24 hours.

[9] = tested on: COL3A1 (Collagen 3); assay: Expression of extracellular matrix gene Collagen 3, RT-PCR in NHDF; assay type: cell-based, human; settings: 10^−5 M, 24 hours, quantitative RT-PCR
Description: as §1, §2, §3, §4, §5, §6, §7, §8

[10] = tested on: ELN (Elastin); assay: Expression of extracellular matrix gene Elastin, RT-PCR in NHDF; assay type: cell-based, human; settings: 10^−5 M, 24 hours, quantitative RT-PCR
Description: as §1, §2, §3, §4, §5, §6, §7, §8

[11] = tested on: EVPL (Envoplakin); assay: Expression of cell differentiation and adhesion gene EVPL, RT-PCR in NHEK; assay type: cell-based, human; settings: 10^−5 M, 24 hours, quantitative RT-PCR
Description: as §1, §2, §3, §4, §5, §6, §9, §8

[12] = tested on: COL5A1 (Collagen 5); assay: Expression of extracellular matrix gene Collagen 5, RT-PCR in NHDF; assay type: cell-based, human; settings: 10^−5 M, 24 hours, quantitative RT-PCR
Description: as §1, §2, §3, §4, §5, §6, §7, §8

[13] = tested on: SPINK5 (Serine peptidase Kazal type 5); assay: Expression of cell differentiation and adhesion gene SPINK5, RT-PCR in NHEK; assay type: cell-based, human; settings: 10^−5 M, 24 hours, quantitative RT-PCR
Description: as §1, §2, §3, §4, §5, §6, §9, §8

[14] = tested on: EPPK1 (Epiplakin 1); assay: Expression of cell differentiation and adhesion gene EPPK1, RT-PCR in NHEK; assay type: cell-based, human; settings: 10^−5 M, 24 hours, quantitative RT-PCR
Description: as §1, §2, §3, §4, §5, §6, §9, §8

[15] = tested on: Collagen 1; assay: Expression of Collagen 1 at the protein level by immunofluorescence in NHDF; assay type: cell-based, human; settings: 10 ppm in 0.1% DMSO, 24 hours, FIG. 1
Description: In this example, the expression of Collagen 1 was measured at the protein level via the immunofluorescence technique, after in vitro incubation of the cells in the absence or presence of the test compounds, at a concentration of 10 ppm in aqueous 0.1% DMSO solution.
The compound in accordance with the invention of formula (IIa) and the comparative compounds Comp.1 and Comp.2, of respective formula (IV) and (V), were tested.
TGFβ was used as positive control, at a concentration of 10 ng/ml in an aqueous solution. An untreated control was also realized.
This study was performed on normal human dermal fibroblasts (NHDF).
The cells were cultured at a concentration of 4000 cells per well in 96-well plates, in the presence of standard culture medium.
The compounds were then added at the test concentration, identical for all, for 24 hours.
The supernatant was removed and the cells were prepared for the fluorescent labeling. The cells were fixed in the presence of 3.7% formaldehyde, and then permeabilized in a buffer containing 1% Triton®, and finally the cells were rinsed and incubated in the presence of an anti-Collagen1 monoclonal antibody (Abcam) for one hour 30 minutes. After washing, the cells were incubated in the presence of the secondary antibody (Alexa GAM488, Invitrogen) for 1 hour. […]
The fluorescence was then quantified using an automated microscope (ArrayScan®, Cellomics®). […]

[16] = tested on: AQP3 (Aquaporin 3); assay: Expression of cell differentiation and adhesion gene AQP3, RT-PCR in NHEK; assay type: cell-based, human; settings: 10^−5 M, 24 hours, quantitative RT-PCR
Description: as §1, §2, §3, §4, §5, §6, §9, §8

[17] = tested on: SPARC (Osteonectin); assay: Expression of extracellular matrix gene SPARC, RT-PCR in NHDF; assay type: cell-based, human; settings: 10^−5 M, 24 hours, quantitative RT-PCR
Description: as §1, §2, §3, §4, §5, §6, §7, §8

[18] = tested on: TGM1 (Transglutaminase 1); assay: Expression of cell differentiation and adhesion gene TGM1, RT-PCR in NHEK; assay type: cell-based, human; settings: 10^−5 M, 24 hours, quantitative RT-PCR
Description: as §1, §2, §3, §4, §5, §6, §9, §8

## COc1ccc2[nH]cc(CCNC(=O)/C=C/c3ccc(O)cc3)c2c1 [(IIb)]
[1]
  Expression of sirtuin-5 relative to the basal level taken to 100%: 125%
[2]
  Expression of the protein Klotho relative to the basal level taken to 100%: +144%

## COc1ccc2[nH]cc(CCNC(=O)/C=C/c3ccc(O)c(O)c3)c2c1 [(IIa), (2E)-3-(3,4-Dihydroxyphenyl)-N-[2-(5-methoxy-1H-indol-3-yl)ethyl]-2-propenamide]
[3]
  Gene expression relative to the basal level taken to 100%: KRT1 (Keratin 1): 142%
[4]
  Gene expression relative to the basal level taken to 100%: CRNN (Cornulin): 261%
[5]
  Gene expression relative to the basal level taken to 100%: LAMA5 (Laminin alpha 5): 141%
[1]
  Expression of sirtuin-5 relative to the basal level taken to 100%: 153%
[6]
  Gene expression relative to the basal level taken to 100%: HAS3 (Hyaluronan synthase 3): 144%
[7]
  Gene expression relative to the basal level taken to 100%: COL1A11 (Collagen 1): 133%
[8]
  Decrease of expression of MMP-9 relative to the basal level taken to 100%: −67%
[9]
  Gene expression relative to the basal level taken to 100%: COL3A1 (Collagen 3): 125%
[10]
  Gene expression relative to the basal level taken to 100%: ELN (Elastin): 136%
[11]
  Gene expression relative to the basal level taken to 100%: EVPL (Envoplakin): 166%
[12]
  Gene expression relative to the basal level taken to 100%: COL5A1 (Collagen 5): 144%
[13]
  Gene expression relative to the basal level taken to 100%: SPINK5 (Serine peptidase Kazal type 5): 173%
[14]
  Gene expression relative to the basal level taken to 100%: EPPK1 (Epiplakin 1): 177%
[15]
  Expression (production) of Collagen 1 relative to the basal level (control) taken to 100%: substantially stimulates the production of collagen 1 by the cells, as much as the positive control (TGFβ)
[16]
  Gene expression relative to the basal level taken to 100%: AQP3 (Aquaporin 3): 228%
[17]
  Gene expression relative to the basal level taken to 100%: SPARC (Osteonectin): 118%
[18]
  Gene expression relative to the basal level taken to 100%: TGM1 (Transglutaminase 1): 183%

## O=C(NCCc1c[nH]c2ccc(O)cc12)c1ccc(O)c(O)c1 [(IIe)]
[1]
  Expression of sirtuin-5 relative to the basal level taken to 100%: 146%
[8]
  Decrease of expression of MMP-9 relative to the basal level taken to 100%: −81%

## COc1ccc2[nH]cc(CCNC(=O)c3ccc(O)cc3O)c2c1 [(IIc)]
[8]
  Decrease of expression of MMP-9 relative to the basal level taken to 100%: −56%

## COc1cc(/C=C/C(=O)NCCc2c[nH]c3ccc(O)cc23)ccc1O [(IId)]
[8]
  Decrease of expression of MMP-9 relative to the basal level taken to 100%: −47%

## O=C(NCCc1c[nH]c2ccccc12)c1ccc(O)cc1 [Comp.2, 4-hydroxy-N-[2-(1H-indol-3-yl)ethyl]benzamide, reference compound]
[15]
  Expression (production) of Collagen 1 relative to the basal level (control) taken to 100%: do not stimulate, or only very sparingly stimulate

## O=C(/C=C/c1ccc(O)c(O)c1)NCCc1c[nH]c2ccc(O)cc12 [(IIf)]
[1]
  Expression of sirtuin-5 relative to the basal level taken to 100%: 140%
[8]
  Decrease of expression of MMP-9 relative to the basal level taken to 100%: −63%
